The source of these data is patent US10695282B2, “Functionalized transition metal dichalcogenides and composition for antioxidation containing the same” (AMOREPACIFIC CORPORATION, priority 2017, dated 2020).

Data set [1] can be described thus: Photostability of antioxidant activity under solar simulator (ABTS assay). It is filed as physicochemical. The following applies: after 3 hours, FIG. 9B.
Data set [2] can be described thus: ABTS assay, antioxidant activity of TMDs functionalized in aqueous solution. It is filed as biochemical. The following applies: TMDs functionalized with PCL-b-PEO in aqueous solution; absorbance change at 734 nm after 12 hours; FIG. 9A; read-out: IC50 (ABTS radical scavenging). The protocol: Specifically, the antioxidant activity of four types of TMDs (MoS2, WS2, MoSe2, and WSe2) functionalized with an amphiphilic block polymer compound in an aqueous solution and Trolox (vitamin E) were measured by an ABTS (2,2′-azino-bis-(3-ethylbenzothiazoline-6-sulfonic acid)) assay.
Specifically, 7 mM 2,2′-azino-bis-(3-ethylbenzothiazoline-6-sulfonic acid) (ABTS) and 2.45 mM potassium persulfate were mixed to make the final concentration and left in a dark place at room temperature for 24 hours. Then, the mixture was diluted with distilled water so that the absorbance value at 734 nm was […]. 100 μl of the sample of each concentration was added to 100 μl of the diluted ABTS radical solution, followed by mixing. After 12 hours, the change of absorbance was measured. The same amount of Trolox as a standard material was added for measurement.

Consider `Cc1c(C)c2c(c(C)c1O)CCC(C)(C(=O)O)O2` (centres unmarked) [Trolox], for which the “antioxidant activity remaining under light” value in data set [1] is listed as 50%. For the same compound, in data set [2], the concentration for half-maximal inhibition (IC50) worked out at 11.7 µM.

Usually IC50 stands for the concentration needed to halve the response being measured.
